From US6716613B1, “Metalloprotease having aggrecanase activity” (Yamanouchi Pharmaceutical Co., Ltd., priority 1999, dated 2004)

Assays:
[1] = system: rabbit knee joint cartilage primary culture cells; assay: Proteoglycan degradation/release in rabbit knee joint cartilage primary culture cells (35S label); format: cell-based
Protocol: After killing a rabbit (Japanese white species, male, 1.0 to 1.5 kg) under excess anesthesia, a knee joint was excised and the cartilage layer on the joint surface was removed and finely cut using a surgical knife. The cut pieces were treated with trypsin-EDTA (0.25%-1 mM; mfd. by GIBCO-BRL) at 37° C. for 1 hour and then centrifuged at 1,500 rpm for 5 minutes, and the resulting precipitate was washed with DMEM. This was treated with collagenase A (0.15%; Boehringer-Mannheim)/DMEM at 37° C. for 3 to 4 hours, and then a nylon mesh filter (100 μm, mfd. by Falcon)-passed fraction was centrifuged at 1,500 rpm for 5 minutes to effect precipitation of cartilage cells. The cells were thoroughly washed with DMEM/10% FBS medium, suspended in DMEM/10% FBS medium to a density of 2×10^5 cells/ml and then inoculated in 200 μl/well portions into an I type collagen-coated 96 well plate (mfd. by Asahi Technoglass). Three days thereafter, the medium was changed to 200 μof DMEM/10% FBS medium containing 50 μg/ml of ascorbic acid (ascorbic acid medium hereinafter), and the culturing was continued for 3 days. When an I type collagen-coated 6 well plate (Asahi Technoglass) was used, the cell suspension was inoculated in 6 ml/well portions and cultured by carrying out the same medium exchange. These cells were used in the following test.
The rabbit knee joint cartilage primary culture cells of 96 well plate described in Example 11-1 were cultured for 2 days using 200 μl of the ascorbic acid medium supplemented with 10 μCi/ml in final concentration of Na2^35SO4 and labeled therewith, washed 3 times with 200 μl of the ascorbic acid medium and then cultured for 1 day using 200 μl of the ascorbic acid medium. After stimulation with IL-1β or all-trans retinoic acid and subsequent 0, 24, and 48 hours of culturing, the culture supernatants were recovered in 20 μl portions, and the radioactivity was measured using Top Count (mfd. by Packard).
Each of the compounds A, B, C and D selected by the screening system of Example 10-2 was added to the proteoglycan degradation system of rabbit knee joint cartilage primary culture cells just before the stimulation with 10 μM of all-trans retinoic acid, and their proteoglycan degradation inhibitory activities were examined.

[2] = system: MDTS6 mRNA; assay: Induction of MDTS6 mRNA expression in rabbit knee joint cartilage primary culture cells (RT-PCR); format: cell-based; conditions: 10 ng/ml of IL-1β or 10 μM of all-trans retinoic acid; 2 and 6 hours
Protocol: After 3 days of culturing of the rabbit knee joint cartilage primary culture cells of 6 well plate described in Example 11-1 by changing the medium to ascorbic acid medium, 10 ng/ml of IL-1β or 10 μM of all-trans retinoic acid was added thereto, and total RNA samples 2 and 6 hours thereafter were prepared using ISOGEN (mfd. by Nippon Gene) in accordance with the attached instructions. Each of the samples was treated with DNase I (mfd. by Nippon Gene), subjected to phenol/chloroform treatment and then recovered by ethanol precipitation, and the thus purified total RNA was dissolved in DEPC-treated sterile water. Using random hexamers as primers, 1 μg of this total RNA was subjected to reverse transcription reaction and RNase H treatment using Thermoscript™ RT-PCR System (mfd. by GIBCO-BRL, catalog number 11146-016) in accordance with the attached instructions, and the product was diluted 10 times with sterile water and used as a cDNA sample. Using 5 μl of each of the thus obtained cDNA samples as the template and the oligoDNA sequences represented by SEQ ID NO:18 and SEQ ID NO:19 as primers, PCR was carried out under a condition of 94° C. for 2 minutes, 45 repetitions of a cycle of 94° C. for 30 seconds, 65° C. for 30 seconds and 72° C. for 30 seconds, and subsequent 72° C. for 10 minutes. […]

[3] = system: MDTS6 mRNA; assay: Expression induction of MDTS6 mRNA in ATDC5 cells (RT-PCR); format: cell-based, mouse; conditions: insulin-differentiated, IL-1β 5 ng/ml for 0, 1, 2, 4 or 8 hours
Protocol: It is known that a mouse cell strain ATDC5 is differentiated into a chondrocyte-like cell by insulin treatment (Atsumi T. et al., Cell Differ. Dev., 30, 109-116, 1990). The ATDC5 cells were inoculated in 4×10^5/well portions into an I type collagen-coated 6 well plate (mfd. by Asahi Technoglass) and cultured for 2 days using DMEM/HamF12 (1:1)/5% FCS medium, the medium was changed to DMEM/HamF12 (1:1)/5% FCS medium containing insulin (final concentration 30 ng/ml) and 50 μg/ml of L-ascorbic acid and the culturing was continued for 5 days, and then the resulting cells were treated for 0, 1, 2, 4 or 8 hours by adding IL-1β (final concentration 5 ng/ml). Total RNA was prepared from each of the treated groups using ISOGEN (mfd. by Nippon Gene), and RT-PCR was carried out using 1 μg portion thereof as the template and using BcaBEST™ RNA PCR Kit (mfd. by Takara Shuzo). The reverse transcription reaction was carried out using Oligo dT-Adaptor Primer as the primer in accordance with the attached instructions, and PCR was carried out using oligoDNA sequences represented by SEQ ID NO:15 and SEQ ID NO:16 as primers, which had been synthesized based on the 3′ non-translation region of MDTS6, by the reaction of 94° C. for 2 minutes, 40 repetitions of a cycle of 94° C. for 30 seconds, 60° C. for 30 seconds and 72° C. for 30 seconds, and subsequent 72° C. for 7 minutes. […]

[4] = molecular target: T1, MDTS6Cys (Homo sapiens, UniProt Q8TE58); assay: ELISA screening system for aggrecanase activity inhibition (anti-aggrecanase neoepitope antibody); format: biochemical; conditions: MDTS6Cys culture supernatant, recombinant aggrecan G1G2 substrate, 37° C. for several hours; read-out: aggrecanase activity inhibition strength (IC50)
T1 construct: made in house; host or cells: HEK293-EBNA cells; unpurified culture supernatant used as enzyme source
T1 sequence (Q8TE58 213-687): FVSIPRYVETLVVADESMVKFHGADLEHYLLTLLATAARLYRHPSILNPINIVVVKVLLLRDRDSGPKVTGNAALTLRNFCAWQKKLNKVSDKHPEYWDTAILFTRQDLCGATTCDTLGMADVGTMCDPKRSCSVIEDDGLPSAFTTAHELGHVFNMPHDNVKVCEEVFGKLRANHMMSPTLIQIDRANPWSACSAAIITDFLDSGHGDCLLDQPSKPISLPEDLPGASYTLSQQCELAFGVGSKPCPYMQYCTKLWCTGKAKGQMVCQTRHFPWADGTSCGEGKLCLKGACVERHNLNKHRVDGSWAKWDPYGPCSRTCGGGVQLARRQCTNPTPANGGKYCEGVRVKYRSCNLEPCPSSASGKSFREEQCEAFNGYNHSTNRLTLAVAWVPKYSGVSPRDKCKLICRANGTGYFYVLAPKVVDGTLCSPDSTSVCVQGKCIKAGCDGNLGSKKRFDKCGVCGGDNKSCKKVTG
Protocol: The criterion to screen a substance which inhibits the aggrecanase activity is preferably 10 μM or less, more preferably 1.0 μM or less, as inhibition activity strength (IC50)

IC50 [4] [nM]	Compound	release of proteoglycan (increase in radioactivity of culture supernatant) ([1]; stimulation with 0.01 to 10 ng/ml IL-1β or 0.1 to 10 μM all-trans retinoic acid, 0, 24, 48 hours of culturing)	expression of the MDTS6 mRNA [2]	expression of the MDTS6 mRNA [3]	inhibition of proteoglycan degradation (in words, FIG. 8) ([1]; compound added just before stimulation with 10 μM of all-trans retinoic acid)
	IL-1β: cytokine used to stimulate proteoglycan release and MDTS6 mRNA expression	increase in the radioactivity, namely release of proteoglycan, was observed	induced	transiently induced	
1000	CNC(=O)[C@H](Cc1ccccc1)NC(=O)C(CC(C)C)C(CS)C(=O)NO (stereo partly drawn) [compound B, N^α-[2-(1-hydroxycarbamoyl-2-sulfanylethyl)-4-methylpentanoyl]-N-methylphenylalanineamide]				inhibition of proteoglycan degradation in a concentration-dependent manner
